Reference: patent US12458587B2, “Hypoallergenic composition for skin regeneration or skin soothing, containing culture product or extract of Aureobasidium pullulans strain” (AMOREPACIFIC CORPORATION, priority 2018, dated 2025)

How the values were obtained:
[1] = tested on: keratinocytes (HaCaT); assay: Scratch wound healing on keratinocyte monolayer (skin-regenerating effect); format: cell-based, human; conditions: relative to scratched area as 100%, 12 ppm (positive control 10% FBS), n=4
Protocol: A linear scratch wound was made on a monolayer of keratinocytes (HaCaT). The HaCaT cells were cultured using Dulbecco's modified Eagle's medium (DMEM, Lonza, USA) containing 10% fetal bovine serum (FBS, GIBCO, USA) in a 5% CO2 incubator at 37° C. Immediately after the application of a scratch, the medium was replaced with a fresh medium containing the sample to be tested and the effect of the test sample on skin regeneration was investigated. The regeneration of the cells on the scratched area was imaged with a time-lapse microscope for 36 hours with 30-minute intervals and wound healing area (%) was compared relative the scratched area (as 100%) (n=4 per group).

[2] = tested on: rabbit eye; conditions: 5%; cited from earlier work

Substance | Wound healing area (%) 12 hours later [1] [%] | Wound healing area (%) 24 hours later [1] [%] | Wound healing area (%) 36 hours later [1] [%] | Wound healing area (%) Immediately after scratching [1] [%] | eye irritation in the Draize rabbit eye test [2]
Madecassoside | 33.56 | 54.56 | 62.48 | 0 | 
sodium magnesium lauryl-myristyl-6-ethoxy-sulfate [Texapon Asv®] |  |  |  |  | moderate irritation
